Ki and IC50 data for 8 compounds are collected here from BindingDB's records for doi:10.1016/j.bioorg.2015.02.005 (North-West University, 2015).

For one experiment, the target named is T1, Adenosine receptor A1 (Rattus norvegicus, UniProt P25099).
T1 sequence (P25099 whole entry): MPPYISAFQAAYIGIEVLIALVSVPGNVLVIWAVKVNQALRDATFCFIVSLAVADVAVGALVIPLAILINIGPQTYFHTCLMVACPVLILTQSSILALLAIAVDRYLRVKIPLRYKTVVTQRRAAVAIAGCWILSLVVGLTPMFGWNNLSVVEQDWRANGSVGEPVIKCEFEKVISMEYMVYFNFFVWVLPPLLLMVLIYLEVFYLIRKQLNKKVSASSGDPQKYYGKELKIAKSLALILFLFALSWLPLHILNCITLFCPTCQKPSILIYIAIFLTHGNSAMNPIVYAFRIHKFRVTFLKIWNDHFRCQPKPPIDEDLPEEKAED
Description: Radioligand Binding Assays. As to the method: (§1) For the A2a receptor binding study, the incubation contained 10 mg of the original tissue weight of the striatal membranes, 4 nM [3H]NECA, 50 nM CPA, 10 mM MgCl2, 0.2 units/mL adenosine deaminase, the test compound and 1% DMSO. For the A1 receptor binding study, the incubations contained 5 mg of the original tissue weight of the whole brain membranes, 0.1 nM [3H]DPCPX, 0.2 units/mL adenosine deaminase, the test compound and 1% DMSO. The incubations were vortexed and incubated for 60 min at 25 °C in a shaking waterbath. Half an hour after incubation was started, the incubations were vortexed again. The incubations were terminated via filtration. The tubes were washed twice with 4 mL ice-cold Tris buffer and the filters were washed once more with 4mL ice-cold Tris buffer. The damp filters were place in scintillation vials and 4 mL of scintillation fluid was added. The vials were shaken and incubated for two hours before being counted.

In experiment [1] the target is T2, Amine oxidase [flavin-containing] B (Homo sapiens, UniProt P27338).
T2 sequence (P27338 whole entry): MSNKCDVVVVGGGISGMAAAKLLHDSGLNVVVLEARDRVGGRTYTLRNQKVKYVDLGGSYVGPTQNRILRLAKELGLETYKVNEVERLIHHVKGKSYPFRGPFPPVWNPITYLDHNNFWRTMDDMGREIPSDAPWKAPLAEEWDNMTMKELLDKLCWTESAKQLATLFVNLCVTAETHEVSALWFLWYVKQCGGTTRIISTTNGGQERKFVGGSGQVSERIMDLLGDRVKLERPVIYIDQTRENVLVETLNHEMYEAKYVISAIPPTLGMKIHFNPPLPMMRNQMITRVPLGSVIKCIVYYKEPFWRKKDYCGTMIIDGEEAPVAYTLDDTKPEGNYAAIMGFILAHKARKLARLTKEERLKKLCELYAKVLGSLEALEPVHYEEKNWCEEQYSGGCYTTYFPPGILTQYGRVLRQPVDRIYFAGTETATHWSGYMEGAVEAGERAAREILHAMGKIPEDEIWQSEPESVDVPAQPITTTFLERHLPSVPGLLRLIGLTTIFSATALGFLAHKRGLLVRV
Description: MAO Inhibition Assays. The following applies: pH 7.4. As to the method: The enzymatic reactions were carried out at pH 7.4 (K2HPO4/KH2PO4 100 mM, made isotonic with KCl) to a final volume of 500 µL. The reactions contained the different inhibitor concentrations spanning at least 3 orders of magnitude and the MAO-A/B mixed substrate kynuramine (45 µM for MAO-A and 30 µM for MAO-B). DMSO, as co-solvent (4%) was added to each reaction. The enzyme reactions were initiated with the addition of MAO-A or MAO-B (0.0075 mg protein/mL) and incubated for 20 min at 37 °C in a waterbath. After termination with the additionof 400 µL NaOH (2 N) and 1000 µL water, the concentrations of the MAO generated 4-hydroxyquinoline were measured by fluorescence spectrophotometry (excitation = […]; emission = […]).

The next experiment has as its target Adenosine receptor A2a (Rattus norvegicus, UniProt P30543). Kind of experiment: Radioligand Binding Assays. As to the method:
as §1

Several values for one entry are separate records, joined by “and”; a condition that tells them apart may be missing. Identical values can stand only once.

Chain of Adenosine receptor A2a (P30543 whole entry): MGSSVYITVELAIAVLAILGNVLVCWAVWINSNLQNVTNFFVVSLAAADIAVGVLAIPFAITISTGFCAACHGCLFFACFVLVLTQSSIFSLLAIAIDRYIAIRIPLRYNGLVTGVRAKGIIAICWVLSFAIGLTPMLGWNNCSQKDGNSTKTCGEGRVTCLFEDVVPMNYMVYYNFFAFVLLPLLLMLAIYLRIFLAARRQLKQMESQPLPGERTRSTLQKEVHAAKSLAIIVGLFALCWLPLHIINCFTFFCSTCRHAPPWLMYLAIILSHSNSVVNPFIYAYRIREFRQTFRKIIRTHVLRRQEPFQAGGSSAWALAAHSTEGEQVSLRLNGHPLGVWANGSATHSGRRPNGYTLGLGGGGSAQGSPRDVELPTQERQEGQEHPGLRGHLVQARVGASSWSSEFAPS

The compound `O=C1NC(=O)c2cc(OCc3ccccc3)ccc21` came in with a Ki at Adenosine receptor A1 of 4670 nM.

In the case of `O=C1Nc2ccc(OCc3ccccc3)cc2C1=O` [5-Benzyloxyisatin], at Adenosine receptor A1, the Ki is 9790 nM.

In experiment [1], `O=C1NC(=O)c2cc(SCCc3ccccc3)ccc21` had an IC50 of 3900 nM. Further, the Ki is 17000 nM on Adenosine receptor A2a; 1880 nM and 649 nM on Adenosine receptor A1.

In the case of `COc1ccc(CSc2ccc3c(c2)C(=O)NC3=O)cc1`, the Ki at Adenosine receptor A1 is 369 nM and 1730 nM.

With `O=C1NC(=O)c2cc(SCc3ccccc3)ccc21`, the Ki on Adenosine receptor A2a is 980 nM; at Adenosine receptor A1 it was 595 nM and 548 nM.

`O=C1NC(=O)c2cc(SCc3ccc(Br)cc3)ccc21` displayed a Ki on Adenosine receptor A1 of 676 nM.

As to `O=C1NC(=O)c2cc(SCc3ccc(Cl)cc3)ccc21`, the IC50 in experiment [1] turned out to be 460 nM.

Consider `O=C1NC(=O)c2cc(SCc3ccc(F)cc3)ccc21`, for which the Ki was 12700 nM on Adenosine receptor A2a; 36700 nM and 6300 nM on Adenosine receptor A1.
